Earlier results, collected in publication PMC2912428 (Bioconjugate chemistry, 2010).

Tested on: SAv-Y43A
Details: SAv-Y43A vs WT SAv ref 21

## O=C(O)CCCC[C@@H]1SC[C@@H]2NC(=O)N[C@@H]21 [biotin, D-biotin]
  lower affinity of SAv-Y43A than wild-type SAv: 67 fold
